Test results taken from patent US11154565B2, “Process for preparing a stable emulsion comprising one or more avermectins” (GALDERMA HOLDING SA, priority 2015, dated 2021).

Assay: Chemical stability of ivermectin in the composition on storage
Format: physicochemical
Conditions: composition obtained according to the invention

ivermectin
chemical stability of ivermectin (stored for 6 months at 40° C.): chemically stable | chemical stability of ivermectin (stored for 12 months at room temperature): chemically stable
